Assay results from US20070026090A1, “Treatment and prevention of inflammatory disease and mitochondrial dysfunction with high dose selenium” (priority 2003, published 2007).

Columns and labels:
MnSOD = MnSOD transcription and expression (RTPCR, Western blot); assay type: cell-based, murine
Experimental: Cell culture: Murine J774.2 macrophages (kindly provided by Prof. Dov Zipori from the Weizmann Institute of Science) were grown in RPMI medium supplemented with 10% (w/v) fetal calf serum, penicillin (100 U/ml), streptomycin (100 μg/ml) and 1× glutamine at 37° C. in a humidified atmosphere consisting of 95% air and 5% CO2. Experiments were performed on cells at 60% confluence.
Western blots (Sp1, MnSOD, UCP2): Cells were grown in six-well tissue culture plates, treated with selenium for 72 h and activated with LPS and IFN-γ for 24 h. The wells were washed with PBS, scraped and centrifuged
(5 min. 2000 RPM), and lysed by addition of boiling hot lysis buffer (1% SDS, 1 mM sodium ortho-vanadate, 10 mM Tris pH 7.4) to the pellets. Protein content was measured (BIO RAD protein assay kit) and equalized. Sample buffer (containg SDS) was added and the samples were boiled. The samples were subjected to SDS-PAGE followed by western blot analysis. Separated proteins were transferred electrophoretically from the gel to a nitrocellulose membrane (Amersham International plc, Buckinghamshire, ENGLAND). The membrane was blocked in TBS (0.15 M NaCl/10 mM Tris/HCl, pH7.4) containing 5% (v/v) skimmed milk (Blotto), then incubated over night with primary antibodies at RT (diluted 1/2000 in blotto). After being washed six times in TBST [TBS containing 0.05% (v/v) Tween 20], the membrane was incubated for 2 h at room temperature with secondary antibody (diluted 1/5000 in blotto). Immunoreactive bands were detected with ECL western blotting detection reagents (Amersham Pharmacia Biotech, Buckingammshire England) and developed on film (Fuji super RX, Dusseldorf, Germany). […]
Right (antisense) 5′[…]-3′ (SEQ ID NO: 6) corresponding to nucleotides 622 to 640 of mouse mRNA region (GenBank Accession No. NM 013671). […] Actual PCR product was approximately 570 bp, measured on 1.25% agarose gel in TAE containing ethidium bromide.
PCR was performed with 28 cycles (25 cycles for GAPDH) of 30 seconds at 96° C., 30 seconds at 58° C. and 1 min at 72° C. RTPCR products were analyzed on 1.3% (w/v) agarose gels.

[1] = test system: hapten (TNBS)-induced colitis
Experimental: Animals: Male Sprague-Dawley rats (approximately 150 g bw) received food and water ad libitum. They were kept in plastic cages with wire tops in a light-controlled room.
High-dose dietary selenium supplementation: Rats received food and (unsupplemented) water ad libitum (control group). Normal selenium (control) diet included 0.2 mg selenium/kg chow. […] The high-selenium diet provided approximately 2-3 μ/gm day of selenium per animal, which is considered an acceptable excess supplementation diet for this element (Davis et al., 1998; Shilo et al., 2003).
Induction of colitis and sample collection: Colitis was induced by administration of 0.5 ml of 2,4,6-trinitrobenzene sulphonic acid (TNBS, 100 mg/ml dissolved in 50% ethanol)through the anal canal, at a distance of 8 cm into the colon, just proximal to the splenic flexure. 24 hours after induction animals were sacrificed and the colon was removed for pathology, histocytological, biochemical or immunohistocytological analysis (Reifen et al., 2000).

J774.2 macrophages = assay: Type of cell death (annexin V-FITC / PI); assay type: cell-based, murine; details: 10 μM, 24 hours; annexin V-FITC and PI
Experimental: Experiments were performed on cells at 60% confluence.
Determination of type of cell death: Type of cell death was determined by dual staining with annexin V-FITC (Santa Cruz Biotechnology, Santa Cruz Calif., USA) and PI, and flow cytometric analysis. Cells were treated with 10 μM selenite for 24 h then collected and re-suspended in binding buffer (10 mM HEPES/NaOH, pH 7.4, 140 mM NaCl, 2.5 mM CaCl2). 2.5 μg/ml annexin V-FITC was added and cells were incubated for 30 min at room temperature, then 0.25 μg/ml PI was added and samples were analyzed by flow cytometry (FACSort, Becton Dickenson and. Co., San Jose, Calif. USA).

Sp1 = Sp1 binding in vitro, selenite added to nuclear extract (EMSA); set-up: species or system murine; details: 5 μM added to nuclear extract 5 minutes before (FIG. 13C)
Experimental: Nuclear extracts: Nuclear Extracts were prepared using a slight modification of the method of Dignam et al (23). Treated cells were washed with cold PBS, scraped and centrifuged. Hypotonic buffer (1 ml, 20 mM HEPES pH 7.0, 10 mM KCl, 1 mM mGCl2, 0.5 mM DTT, 0.1% Triton X-100, 20% glycerol, 2 mM PMSP, 1 mg/ml Aprotonin and Leupeptin) was added to the cell pellets, the pellets were disrupted by pipetting, and centrifuged 3000 RPM for 5 min. The pellets were re-suspended in 100 μl cold extraction buffer (20 mM HEPES pH 7.0, 10 mM KCl, 1 mM mGCl2, 0.5 mM DTT, 0.1% Triton X-100, 20% glycerol, 2 mM PMSF, 1 mg/ml Aprotonin and Leupeptin, 420 mM NaCl). The samples were rotated for 20 min at 4° C., centrifuged 15,000 RPM for 10 min, and supernatants collected. Protein content was measured using Bradford reagent. Samples were stored frozen at minus 70° C.
Electromobility shift assay (EMSA)—Gel shift assays were performed according to the gel shift assay protocol from Promega Corp. (San Luis Obispo, Calif.). A 22-mer double-stranded NF-κB consensus oligonucleotide 5′-[…]-3′ (SEQ ID NO:3), and Sp1 consensus oligonucleotide 5′-[…]-3(SEQ ID NO:4), were labeled with 32P. […]

[Se] [selenium]
lowest concentration effective in significantly reducing MnSOD transcripts and protein (MnSOD; 24 and 72 hours, resting J774.2 (FIG. 9A, 9B)): 0.5 µM | MnSOD expression, activated macrophages (MnSOD; exposure (72 hours) prior to activation, concentration dependent (FIG. 11)): decreased | necrosis, share of the colon (gross pathology) ([1]; 24 h after TNBS, 3 weeks high-dose supplementation, unsupplemented rat more than 80%): less than 15% | effects on colon tissue of healthy, uninduced rats (gross pathology) ([1]; rat, in vivo): no apparent effects | character of cell death (J774.2 macrophages): cell death with necrotic characteristics | Sp-1 binding in vitro (Sp1): directly inhibited
